Source: patent publication EP4722207A1, “OXOISOINDOLINYL-SUBSTITUTED TETRAHYDROPYRIMIDINEDIONE DERIVATIVE AND USE THEREOF” (Gluetacs Therapeutics (Shanghai) Co., Ltd., priority 2023, dated 2024)

What was measured:
[1] = test system: H292; assay: Cell viability assay (CellTiter-Meiluncell Luminescent), tumor cell proliferation, H292; conditions: Homo sapiens, NCI-H292, 96 h; for inhibition at 0.01 µM: read-out: Inhibition Rate at 10 nM (%); for inhibition at 0.5 µM: read-out: Inhibition Rate at 500 nM (%)
Procedure: (§1) The tumor cells used herein were cultured in a cell culture medium listed in table 2 at 37°C in an incubator with 5% CO2. Prior to experimentation, all cell lines used were correctly identified by STR profiling, and tested negative for mycoplasma contamination using a mycoplasma detection kit through routine screenings.
(§2) On the following day, the test compounds of the present disclosure were subjected to serial dilution. […] Subsequently, 0.5 µL of the test compound dilution was transferred into the 96-well plate containing the cells, with each well containing 100 µL of cell culture medium. […] Into the 96-well plate, the diluted test compounds and corresponding detection reagents were added, resulting in final test compound concentrations of 500 nM and 10 nM, respectively. The experimental procedure is described below using the diluted 2 µM test compound as an example.
(§3) After the cells were treated with the compounds of the present disclosure for a specified period, the cell viability assay reagent was added to the culture medium according to the kit's instructions to determine cell viability. […] All controls were treated using the same procedure as the compounds of the present disclosure. The growth inhibition curves for the compounds of the present disclosure were plotted using Prism GraphPad software, and the IC50 values were calculated therefrom.

[2] = test system: MV-4-11; assay: Cell viability assay (CellTiter-Meiluncell Luminescent), tumor cell proliferation, MV-4-11; conditions: Homo sapiens, MV4-11, 96 h; for inhibition at 0.01 µM: read-out: Inhibition Rate at 10 nM (%); for inhibition at 0.5 µM: read-out: Inhibition Rate at 500 nM (%)
[3] = test system: MDA-MB-231; assay: Cell viability assay (CellTiter-Meiluncell Luminescent), tumor cell proliferation, MDA-MB-231; conditions: Homo sapiens, MDA-MB-231, 96 h; for inhibition at 0.01 µM: read-out: Inhibition Rate at 10 nM (%); for inhibition at 0.5 µM: read-out: Inhibition Rate at 500 nM (%)
Procedure: as §1, §2, §3

[4] = target: T1, WEE1 (Homo sapiens, UniProt P30291+Q96SW2); assay: Western-blot assay, substrate protein degradation in hPBMCs: WEE1; assay type: cell-based; conditions: 24 hours of compound treatment, 50 nM and 500 nM
T1 construct: effects of the compounds of the present disclosure on the expression of target proteins in cells; endogenous in cells; host or cells: human PBMCs (hPBMCs)
T1 sequence (P30291 whole entry): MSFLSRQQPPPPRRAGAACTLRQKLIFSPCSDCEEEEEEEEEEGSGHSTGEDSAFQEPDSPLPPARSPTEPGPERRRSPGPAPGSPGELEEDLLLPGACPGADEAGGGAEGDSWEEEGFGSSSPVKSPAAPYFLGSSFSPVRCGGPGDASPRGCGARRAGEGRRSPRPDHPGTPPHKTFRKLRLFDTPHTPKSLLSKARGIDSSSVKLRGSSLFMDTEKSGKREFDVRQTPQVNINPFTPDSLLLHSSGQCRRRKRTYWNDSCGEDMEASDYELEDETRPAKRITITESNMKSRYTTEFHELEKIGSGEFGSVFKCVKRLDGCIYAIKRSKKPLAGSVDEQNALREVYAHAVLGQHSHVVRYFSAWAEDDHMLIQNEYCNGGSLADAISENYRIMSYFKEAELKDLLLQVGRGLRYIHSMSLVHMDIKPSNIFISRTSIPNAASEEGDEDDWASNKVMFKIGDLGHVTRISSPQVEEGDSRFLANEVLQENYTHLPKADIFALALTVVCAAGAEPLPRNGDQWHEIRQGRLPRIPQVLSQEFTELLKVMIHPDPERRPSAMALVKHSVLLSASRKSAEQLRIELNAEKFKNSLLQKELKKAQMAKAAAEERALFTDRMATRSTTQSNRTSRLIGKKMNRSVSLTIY
T1 sequence (Q96SW2 whole entry): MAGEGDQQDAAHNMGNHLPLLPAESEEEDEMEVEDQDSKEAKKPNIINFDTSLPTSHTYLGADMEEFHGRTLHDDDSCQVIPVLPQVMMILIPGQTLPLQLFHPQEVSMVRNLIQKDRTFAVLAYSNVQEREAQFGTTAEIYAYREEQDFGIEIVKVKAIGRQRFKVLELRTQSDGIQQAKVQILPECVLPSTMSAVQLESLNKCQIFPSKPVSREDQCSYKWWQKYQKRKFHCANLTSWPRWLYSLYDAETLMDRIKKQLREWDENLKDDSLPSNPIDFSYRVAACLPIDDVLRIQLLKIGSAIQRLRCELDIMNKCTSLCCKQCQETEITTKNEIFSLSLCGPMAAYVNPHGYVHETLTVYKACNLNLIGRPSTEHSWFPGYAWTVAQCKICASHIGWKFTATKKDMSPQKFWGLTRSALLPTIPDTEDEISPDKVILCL
T1 sequence (Q16531 whole entry partner): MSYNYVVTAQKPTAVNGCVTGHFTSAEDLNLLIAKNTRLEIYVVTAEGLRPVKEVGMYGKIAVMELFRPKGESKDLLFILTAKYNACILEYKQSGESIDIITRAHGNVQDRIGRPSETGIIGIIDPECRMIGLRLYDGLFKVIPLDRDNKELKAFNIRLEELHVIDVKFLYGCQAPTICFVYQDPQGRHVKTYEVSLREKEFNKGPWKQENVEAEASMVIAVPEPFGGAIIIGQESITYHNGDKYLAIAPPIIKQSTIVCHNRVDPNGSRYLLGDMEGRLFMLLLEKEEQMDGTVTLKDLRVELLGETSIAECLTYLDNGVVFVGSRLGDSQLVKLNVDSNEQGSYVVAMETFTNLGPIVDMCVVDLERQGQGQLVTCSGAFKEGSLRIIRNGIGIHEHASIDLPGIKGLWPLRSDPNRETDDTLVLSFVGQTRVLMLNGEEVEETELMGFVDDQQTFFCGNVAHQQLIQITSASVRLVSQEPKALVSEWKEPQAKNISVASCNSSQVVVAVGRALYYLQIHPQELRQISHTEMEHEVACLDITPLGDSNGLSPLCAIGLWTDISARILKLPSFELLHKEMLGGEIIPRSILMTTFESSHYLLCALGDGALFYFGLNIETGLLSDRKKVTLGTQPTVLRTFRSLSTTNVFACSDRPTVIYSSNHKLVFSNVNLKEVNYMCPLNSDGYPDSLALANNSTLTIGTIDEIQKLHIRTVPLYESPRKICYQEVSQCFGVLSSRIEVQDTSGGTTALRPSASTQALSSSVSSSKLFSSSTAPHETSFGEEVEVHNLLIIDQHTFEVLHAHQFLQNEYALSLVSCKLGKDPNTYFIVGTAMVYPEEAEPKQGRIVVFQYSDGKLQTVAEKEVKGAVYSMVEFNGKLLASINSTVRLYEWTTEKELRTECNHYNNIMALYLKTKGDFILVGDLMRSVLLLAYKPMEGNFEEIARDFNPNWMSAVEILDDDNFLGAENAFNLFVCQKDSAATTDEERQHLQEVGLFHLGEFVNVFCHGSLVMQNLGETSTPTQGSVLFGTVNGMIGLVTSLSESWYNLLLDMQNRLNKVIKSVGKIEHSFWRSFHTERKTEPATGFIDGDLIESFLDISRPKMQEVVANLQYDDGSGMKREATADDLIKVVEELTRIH

[5] = target: T2, IKZF1 (Homo sapiens, UniProt Q13422+Q96SW2); assay: Western-blot assay, substrate protein degradation in hPBMCs: IKZF1; assay type: cell-based; conditions: 24 hours of compound treatment, 50 nM and 500 nM
T2 construct: effects of the compounds of the present disclosure on the expression of target proteins in cells; endogenous in cells; host or cells: human PBMCs (hPBMCs)
T2 sequence (Q13422 whole entry): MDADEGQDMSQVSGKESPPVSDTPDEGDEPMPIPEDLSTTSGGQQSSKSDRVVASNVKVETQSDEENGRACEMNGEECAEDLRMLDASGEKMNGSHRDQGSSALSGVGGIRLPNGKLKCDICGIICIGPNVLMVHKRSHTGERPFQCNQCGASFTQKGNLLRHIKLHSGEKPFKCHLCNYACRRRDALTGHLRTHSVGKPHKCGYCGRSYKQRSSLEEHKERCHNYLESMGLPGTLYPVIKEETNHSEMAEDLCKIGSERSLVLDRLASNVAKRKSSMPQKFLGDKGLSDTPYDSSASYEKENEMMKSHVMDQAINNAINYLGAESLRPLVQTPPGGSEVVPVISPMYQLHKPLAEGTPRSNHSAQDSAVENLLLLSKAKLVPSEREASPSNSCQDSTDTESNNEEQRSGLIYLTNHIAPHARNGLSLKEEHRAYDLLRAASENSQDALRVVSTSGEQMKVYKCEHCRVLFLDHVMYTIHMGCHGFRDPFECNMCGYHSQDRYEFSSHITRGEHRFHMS
T2 sequence (Q96SW2 whole entry): as the sequence (Q96SW2 whole entry) above
T2 sequence (Q16531 whole entry partner): as the sequence (Q16531 whole entry partner) above

[6] = target: T3, IKZF2 (Homo sapiens, UniProt Q96SW2+Q9UKS7); assay: Western-blot assay, substrate protein degradation in hPBMCs: IKZF2; assay type: cell-based; conditions: 24 hours of compound treatment, 50 nM and 500 nM
T3 construct: effects of the compounds of the present disclosure on the expression of target proteins in cells; endogenous in cells; host or cells: human PBMCs (hPBMCs)

[7] = target: T4, IKZF3 (Homo sapiens, UniProt Q96SW2+Q9UKT9); assay: Western-blot assay, substrate protein degradation in hPBMCs: IKZF3; assay type: cell-based; conditions: 24 hours of compound treatment, 50 nM and 500 nM
T4 construct: effects of the compounds of the present disclosure on the expression of target proteins in cells; endogenous in cells; host or cells: human PBMCs (hPBMCs)
T4 sequence (Q9UKT9 whole entry): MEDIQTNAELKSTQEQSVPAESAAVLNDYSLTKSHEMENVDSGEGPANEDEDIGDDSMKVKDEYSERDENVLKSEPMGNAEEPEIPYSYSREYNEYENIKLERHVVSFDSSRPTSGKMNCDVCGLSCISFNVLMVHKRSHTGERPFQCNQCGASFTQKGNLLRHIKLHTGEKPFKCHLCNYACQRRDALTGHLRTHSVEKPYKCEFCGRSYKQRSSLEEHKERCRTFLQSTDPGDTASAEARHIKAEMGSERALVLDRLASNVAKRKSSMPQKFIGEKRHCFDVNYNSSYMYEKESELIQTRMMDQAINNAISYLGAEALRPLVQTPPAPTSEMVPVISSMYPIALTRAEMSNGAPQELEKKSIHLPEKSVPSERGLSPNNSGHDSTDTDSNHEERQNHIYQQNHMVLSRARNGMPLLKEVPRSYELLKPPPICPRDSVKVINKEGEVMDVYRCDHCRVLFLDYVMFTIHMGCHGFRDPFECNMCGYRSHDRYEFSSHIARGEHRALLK
T4 sequence (Q96SW2 whole entry): as the sequence (Q96SW2 whole entry) above
T4 sequence (Q16531 whole entry partner): as the sequence (Q16531 whole entry partner) above

[8] = target: T5, CK1α (Homo sapiens, UniProt P48729+Q96SW2); assay: Western-blot assay, substrate protein degradation in hPBMCs: CK1α; assay type: cell-based; conditions: 24 hours of compound treatment, 50 nM and 500 nM
T5 construct: effects of the compounds of the present disclosure on the expression of target proteins in cells; endogenous in cells; host or cells: human PBMCs (hPBMCs)
T5 sequence (P48729 whole entry): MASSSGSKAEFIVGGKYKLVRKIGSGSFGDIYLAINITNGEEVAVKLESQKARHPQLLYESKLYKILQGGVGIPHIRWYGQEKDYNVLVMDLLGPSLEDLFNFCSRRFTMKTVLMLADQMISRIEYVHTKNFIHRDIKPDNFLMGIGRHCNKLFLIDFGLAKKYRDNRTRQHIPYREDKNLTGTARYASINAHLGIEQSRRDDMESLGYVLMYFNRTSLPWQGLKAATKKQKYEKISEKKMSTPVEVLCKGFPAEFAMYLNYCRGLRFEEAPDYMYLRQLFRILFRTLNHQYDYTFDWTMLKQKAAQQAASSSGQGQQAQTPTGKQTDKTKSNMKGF
T5 sequence (Q96SW2 whole entry): as the sequence (Q96SW2 whole entry) above
T5 sequence (Q16531 whole entry partner): as the sequence (Q16531 whole entry partner) above

[9] = target: T6, GSPT1 (Homo sapiens, UniProt P15170+Q96SW2); assay: Western-blot assay, substrate protein degradation in hPBMCs: GSPT1; assay type: cell-based; conditions: 24 hours of compound treatment, 50 nM and 500 nM
T6 construct: effects of the compounds of the present disclosure on the expression of target proteins in cells; endogenous in cells; host or cells: human PBMCs (hPBMCs)
T6 sequence (P15170 whole entry): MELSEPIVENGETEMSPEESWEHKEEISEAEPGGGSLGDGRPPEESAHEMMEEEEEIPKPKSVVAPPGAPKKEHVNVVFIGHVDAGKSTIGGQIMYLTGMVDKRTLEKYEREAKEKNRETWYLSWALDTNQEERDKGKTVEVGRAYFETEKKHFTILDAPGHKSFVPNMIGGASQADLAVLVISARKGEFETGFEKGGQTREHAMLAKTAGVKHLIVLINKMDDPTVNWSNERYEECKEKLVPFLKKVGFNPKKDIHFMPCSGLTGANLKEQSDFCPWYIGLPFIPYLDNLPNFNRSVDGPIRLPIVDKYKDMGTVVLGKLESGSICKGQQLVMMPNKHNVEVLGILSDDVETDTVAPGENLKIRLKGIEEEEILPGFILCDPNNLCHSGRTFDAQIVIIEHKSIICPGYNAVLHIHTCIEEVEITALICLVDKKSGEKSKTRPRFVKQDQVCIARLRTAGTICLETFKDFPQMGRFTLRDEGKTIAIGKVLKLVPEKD
T6 sequence (Q96SW2 whole entry): as the sequence (Q96SW2 whole entry) above
T6 sequence (Q16531 whole entry partner): as the sequence (Q16531 whole entry partner) above

Row | Compound | inhibition at 0.01 µM [1] [%] | inhibition at 0.5 µM [1] [%] | inhibition at 0.01 µM [2] [%] | inhibition at 0.5 µM [2] [%] | inhibition at 0.01 µM [3] [%] | inhibition at 0.5 µM [3] [%] | substrate protein remaining % WEE1 [4] | substrate protein remaining % IKZF1 [5] | substrate protein remaining % IKZF2 [6] | substrate protein remaining % IKZF3 [7] | substrate protein remaining % CK1α [8] | substrate protein remaining % GSPT1 [9]
1 | O=C1CCN(N2Cc3cc(CNC45CC6CC(CC(C6)C4)C5)ccc3C2=O)C(=O)N1 [GT-07806, 1-(5-((((3s,5s,7s)-adamantan-1-yl)amino)methyl)-1-oxoisoindolin-2-yl)dihydropyrimidine-2,4(1H,3H)-dione] | 15 to 20 | 15 to 20 | 5 to 10 | 25 to 30 | 18 to 25 | 18 to 25 |  |  |  |  |  | 
2 | O=C1CCN(N2C(=O)c3ccc(CN4CC(=C5CCOc6cc(F)ccc65)C4)cc3C2=O)C(=O)N1 [GT-07888, 2-(2,4-dioxotetrahydropyrimidin-1(2H)-yl)-5-((3-(7-fluorochroman-4-ylidene)azetidin-1-yl)methyl)isoindoline-1,3-dione] | 5 to 10 | 10 to 15 | 40 to 60 | 40 to 60 | 18 to 25 | 18 to 25 |  |  |  |  |  | 
3 | CC1(C)[C@@H]2CC[C@]1(CS(=O)(=O)NCc1ccc3c(c1)C(=O)N(N1CCC(=O)NC1=O)C3=O)C(=O)C2 [GT-07998, 1-((1R,4R)-7,7-dimethyl-2-oxobicyclo[2.2.1]heptan-1-yl)-N-((2-(2,4-dioxotetrahydropyrimidin-1(2H)-yl)-1,3-dioxoisoindolin-5-yl)methyl)methanesulfonamide] | 15 to 20 | 1 to 5 |  |  | 25 to 40 | 10 to 15 |  |  |  |  |  | 
4 | Cc1csc2ncnc(N3CCN(Cc4ccc5c(c4)CN(N4CCC(=O)NC4=O)C5=O)CC3)c12 [GT-08058, 1-(5-((4-(5-methylthieno[2,3-d]pyrimidin-4-yl)piperazin-1-yl)methyl)-1-oxoisoindolin-2-yl)dihydropyrimidine-2,4(1H,3H)-dione] |  |  |  |  | 25 to 40 | 15 to 18 | B (80%< substrate protein remaining %≤ 100%) | A (0% ≤ substrate protein remaining % ≤ 80%) | B (80%< substrate protein remaining %≤ 100%) | B (80%< substrate protein remaining %≤ 100%) | B (80%< substrate protein remaining %≤ 100%) | B (80%< substrate protein remaining %≤ 100%)
5 | Cc1nc(N2CCN(Cc3ccc4c(c3)CN(N3CCC(=O)NC3=O)C4=O)CC2)c2c3c(sc2n1)CCCC3 [GT-08068, 1-(5-((4-(2-methyl-5,6,7,8-tetrahydrobenzo[4,5]thieno[2,3-d]pyrimidin-4-yl)piperazin-1-yl)methyl)-1-oxoisoindolin-2-yl)dihydropyrimidine-2,4(1H,3H)-dione] | 20 to 40 | 20 to 40 | 18 to 25 | 18 to 25 |  |  | B (80%< substrate protein remaining %≤ 100%) | B (80%< substrate protein remaining %≤ 100%) | A (0% ≤ substrate protein remaining % ≤ 80%) | B (80%< substrate protein remaining %≤ 100%) | A (0% ≤ substrate protein remaining % ≤ 80%) | B (80%< substrate protein remaining %≤ 100%)
6 | O=C1CCN(N2Cc3cc(CN4CCN(c5ncc6ccsc6n5)CC4)ccc3C2=O)C(=O)N1 [GT-08081, 1-(1-oxo-5-((4-(thieno[2,3-d]pyrimidin-2-yl)piperazin-1-yl)methyl)isoindolin-2-yl)dihydropyrimidine-2,4(1H,3H)-dione] |  |  | 18 to 25 | 25 to 30 | 18 to 25 | 5 to 10 | A (0% ≤ substrate protein remaining % ≤ 80%) | B (80%< substrate protein remaining %≤ 100%) | B (80%< substrate protein remaining %≤ 100%) | B (80%< substrate protein remaining %≤ 100%) | A (0% ≤ substrate protein remaining % ≤ 80%) | A (0% ≤ substrate protein remaining % ≤ 80%)
7 | Cc1cc2c(C3CCN(Cc4ccc5c(c4)C(=O)N(N4CCC(=O)NC4=O)C5=O)CC3)ncnc2s1 [GT-08107, 2-(2,4-dioxotetrahydropyrimidin-1(2H)-yl)-5-((4-(6-methylthieno[2,3-d]pyrimidin-4-yl)piperidin-1-yl)methyl)isoindoline-1,3-dione] | 5 to 10 | 10 to 15 | 30 to 40 | 40 to 60 |  |  | A (0% ≤ substrate protein remaining % ≤ 80%) | A (0% ≤ substrate protein remaining % ≤ 80%) | A (0% ≤ substrate protein remaining % ≤ 80%) | A (0% ≤ substrate protein remaining % ≤ 80%) | A (0% ≤ substrate protein remaining % ≤ 80%) | A (0% ≤ substrate protein remaining % ≤ 80%)
8 | O=C1CCN(N2C(=O)c3ccc(CN4CCC(c5ncnc6sc(-c7ccccc7)cc56)CC4)cc3C2=O)C(=O)N1 [GT-08108, 2-(2,4-dioxotetrahydropyrimidin-1(2H)-yl)-5-((4-(6-phenylthieno[2,3-d]pyrimidin-4-yl)piperidin-1-yl)methyl)isoindoline-1,3-dione] | 20 to 40 | 15 to 20 |  |  | 25 to 40 | 18 to 25 | A (0% ≤ substrate protein remaining % ≤ 80%) | A (0% ≤ substrate protein remaining % ≤ 80%) | A (0% ≤ substrate protein remaining % ≤ 80%) | A (0% ≤ substrate protein remaining % ≤ 80%) | A (0% ≤ substrate protein remaining % ≤ 80%) | A (0% ≤ substrate protein remaining % ≤ 80%)
9 | O=C1CCN(N2C(=O)c3ccc(CN4CCC(c5ncnc6scc(-c7ccccc7)c56)CC4)cc3C2=O)C(=O)N1 [GT-08109, 2-(2,4-dioxotetrahydropyrimidin-1(2H)-yl)-5-((4-(5-phenylthieno[2,3-d]pyrimidin-4-yl)piperidin-1-yl)methyl)isoindoline-1,3-dione] | 15 to 20 | 1 to 5 |  |  | 18 to 25 | 5 to 10 | A (0% ≤ substrate protein remaining % ≤ 80%) | A (0% ≤ substrate protein remaining % ≤ 80%) | A (0% ≤ substrate protein remaining % ≤ 80%) | A (0% ≤ substrate protein remaining % ≤ 80%) | A (0% ≤ substrate protein remaining % ≤ 80%) | A (0% ≤ substrate protein remaining % ≤ 80%)
10 | Cc1nc(C2CCN(Cc3ccc4c(c3)CN(N3CCC(=O)NC3=O)C4=O)CC2)c2c3c(sc2n1)CCC3 [GT-08114, 1-(5-((4-(2-methyl-6,7-dihydro-5H-cyclopenta[4,5]thieno[2,3-d]pyrimidin-4-yl)piperidin-1-yl)methyl)-1-oxoisoindolin-2-yl)dihydropyrimidine-2,4(1H,3H)-dione] | 20 to 40 | 10 to 15 |  |  | 18 to 25 | 18 to 25 | B (80%< substrate protein remaining %≤ 100%) | B (80%< substrate protein remaining %≤ 100%) | B (80%< substrate protein remaining %≤ 100%) | B (80%< substrate protein remaining %≤ 100%) | B (80%< substrate protein remaining %≤ 100%) | A (0% ≤ substrate protein remaining % ≤ 80%)
11 | Cc1csc2ncnc(C3=CCN(Cc4ccc5c(c4)CN(N4CCC(=O)NC4=O)C5=O)CC3)c12 [GT-08117, 1-(5-((4-(5-methylthieno[2,3-d]pyrimidin-4-yl)-3,6-dihydropyridin-1(2H)-yl)methyl)-1-oxoisoindolin-2-yl)dihydropyrimidine-2,4(1H,3H)-dione] | 20 to 40 | 20 to 40 |  |  | 18 to 25 | 18 to 25 | B (80%< substrate protein remaining %≤ 100%) | B (80%< substrate protein remaining %≤ 100%) | B (80%< substrate protein remaining %≤ 100%) | A (0% ≤ substrate protein remaining % ≤ 80%) | A (0% ≤ substrate protein remaining % ≤ 80%) | A (0% ≤ substrate protein remaining % ≤ 80%)
12 | O=C1CCN(N2C(=O)c3ccc(CN4CCN(c5nccc(Cl)c5F)CC4)cc3C2=O)C(=O)N1 [GT-08190, 5-((4-(4-chloro-3-fluoropyridin-2-yl)piperazin-1-yl)methyl)-2-(2,4-dioxotetrahydropyrimidin-1(2H)-yl)isoindoline-1,3-dione] | 20 to 40 | 20 to 40 |  |  | 18 to 25 | 10 to 15 |  |  |  |  |  | 
